Data: patent US20120283190A1, “ENDOTHELIN INHIBITORS FOR THE TREATMENT OF RAPIDLY PROGRESSIVE GLOMERULONEPHRITIS” (Institut National De La Santé Et De La Recherche Medicale …, priority 2009, published 2012)
Where a SMILES comes first, the peptide text is derived from it. [ ]: non-standard residue; d: D form.

Key:
[1] = tested on: experimental model of RPGN; experiment: anti-GBM RPGN model, continuous infusion of selective ETA or ETB antagonist by subcutaneous osmotic minipumps; type: in vivo, C57B1/6J mice; conditions: 100 nmol·kg−1·day−1 by minipump; for plasma urea concentration (index of renal failure): vehicle 34.3±6.1 mmol/L
[2] = tested on: accelerated anti-GBM RPGN model; experiment: accelerated anti-GBM RPGN model, bosentan mixed with food; type: in vivo, C57B1/6J mice; conditions: bosentan 50 mg/kg/d oral in food
Method: Male and female C57B1/6 mice weighing 20-25 g, 10 weeks old, purchased from Charles River France, were housed in a room with a 12 h light-dark cycle with water and food ad libido. […] The animals were sacrificed by injection of pentobarbital (100 mg/kg i.p.)
The accelerated anti-GBM RPGN model was used, as previously described in Topham P S et al, 1999 and Lloyd C M et al, 1997. Briefly, C57B1/6J male mice were given subcutaneous injections of 200 μg normal sheep IgG (100 μl into each flank of normal sheep IgG (Sigma) diluted to 1 mg/ml in a solution of 50% Freund's complete adjuvent and 50% saline). Six days later (day 1), GN was induced by intravenous injection of 50 μL sheep anti-glomerular basement membrane (GBM) serum diluted to 70 mg/ml in saline. Serum injections were repeated twice (on days 2 and 3), with the serum volume increased to 250 μL. From days 0 to 14, mice were given bosentan, an orally active endothelin antagonist (designated chemically as 4-tert-butyl-N-[6-(2-hydroxy-ethoxy)-5-(2-methoxy-phenoxy)-[2,2′]-bipyrimidin-4-yl]-benzenesulfonamide monohydrate). We manually grinded 62.5 mg film-coated tablets of […] ® (bosentan) for oral administration and mixed them with powdered food supplied to the animals at an active dose of 50 mg/kg/d for 14 days as previously described^3. […] The treated group (n=7) was compared to vehicle-treated animals (n=6). […]
Normalized albumin urinary excretion was evaluated from urine samples collected for 18 h in metabolic cages (Techniplast). Urinary creatinine and albumin were quantified spectrophotometrically using colorimetric methods (Olympus).
For light microscopy, half mouse kidneys were fixed and embedded in paraffin, and 3 μm-thick sections were cut. Histopathological changes were evaluated using Masson's trichrome coloration by an examiner who was blind to the experimental conditions. The proportion of crescentic glomeruli was determined by examination of at least 50 glomeruli per section.

[3] = tested on: murine podocyte cell line; experiment: migration assay in cultured podocytes (Ibidi Culture-Insert, gap coverage); type: cell-based, mouse; conditions: coverage of 500 μm gap after 20 hours of culture; vs vehicle (RPMI with DMSO)
Method: Selected experiments (migration studies) were performed in a murine podocyte cell line (Schiwek D et al, 2004) derived from isolated from kidneys of Immorto-Mouse® mice (Charles River, St. Louis, Mo., USA), carrying a temperature-sensitive mutant of the immortalizing SV40 large T antigen under control of the interferon-gamma (INF-γ)-inducible H-2 Kb promoter. Migration assays were performed in μ-Dish 35 mm high with Culture-Insert (Ibidi). Ibidi's wounding inserts were used for cell migration or cell invasion studies. […] The inserts can be inserted into any bio-compatible surface and used to culture one or multiple cell lines. These inserts have two wells that create 2 distinct cell patches with a defined gap of 500 μm. The coverage of this gap after 20 hours of culture was assessed in the presence of the selective ETA antagonist BQ123 or the ETB antagonist BQ 788 (Calbiochem) or vehicle (RPMI with DMSO).

Compound | plasma urea concentration (index of renal failure) [1] [mmol/L] | Albuminuria normalized to creatininuria, fold lower than in vehicle-treated counterparts ([2]; day 5 after infusion of the anti-GBM serum, p=0.0053) [fold] | crescentic glomeruli, fold less than in vehicle-treated counterparts ([2]; day 14 after infusion of the anti-GBM serum, p=0.0057) [fold] | fibrinogen deposition in glomeruli with disappearance of podocin positive podocytes ([2]; mice with anti-GBM serum-induced RPGN) | Albuminuria normalized to creatininuria ([1]; day 7 after infusion of the anti-GBM serum, versus PBS-treated animals) | migration of cultured podocytes [3]
CC(C)C[C@@H]1NC(=O)[C@@H](C(C)C)NC(=O)[C@@H]2CCCN2C(=O)[C@@H](CC(=O)O)NC(=O)[C@@H](Cc2c[nH]c3ccccc23)NC1=O [BQ123] (cyclo(L[dW][dD]P[dV])) | 17.5 ± 2.5 |  |  |  |  | 
COc1ccccc1Oc1c(NS(=O)(=O)c2ccc(C(C)(C)C)cc2)nc(-c2ncccn2)nc1OCCO [bosentan, 4-tert-butyl-N-[6-(2-hydroxy-ethoxy)-5-(2-methoxy-phenoxy)-[2,2′]-bipyrimidin-4-yl]-benzenesulfonamide monohydrate] |  | 5.8 | 14 | blunted |  | 
CCCC[C@@H](NC(=O)[C@@H](Cc1cn(C(=O)OC)c2ccccc12)NC(=O)[C@H](CC(C)(C)C)NC(=O)N1[C@H](C)CCC[C@@H]1C)C(=O)O [BQ788] | 12.3 ± 2.1 |  |  |  | prominent action | prominent action
